Key:
Assay type in all cases: cell-based, human
BJ cells = experiment: Quantification of ESC-like (high-quality PSC morphology) colonies in reprogramming; details: BRD3R reprogramming vs control reprogramming
Description: When combined with the 3F combination (OCT4, SOX2 and KLF4), BRD3R gave rise to abundant TRA-1-60^+ clusters as early as day 6, whereas such clusters were infrequent events before day 10 in the control reprogramming (3F alone and 3F-GFP) (FIGS. 8A and 8E). On day 10, TRA-1-60^+ cells in BRD3R dishes developed into colonies while controls contained only small clusters of TRA-1-60^+ cells (FIG. 8E). The number of high-quality PSC colonies was also compared (well-defined colony border, homogeneous iPSCs within each reprogramming colony, smooth colony surface, and typical morphology of pluripotent cells (small cells, large nucleus, and close cell contact)), BRD3R reprogramming gave rise to at least 57× more colonies with PSC morphology than controls (FIGS. 9A and 9B). In addition, the iPSC colonies generally were larger in BRD3R dishes than in the control dishes (FIG. 1E, and FIGS. 8C, 8E, 9B, and 12C).
• Cell culture and reprogramming: Human fibroblast cells (BJ ATCC CRL-2522®) were cultured in fibroblast medium: DMEM, 10% heat-inactivated FBS, 0.1 mM 2-mercaptoethanol, 100 U/ml penicillin, 100 μg/ml streptomycin, 0.1 mM MEM NEAA and 4 ng/ml human bFGF. For reprogramming, seed BJ cells into 24-well plate at 2×10^4 cells/well. […]

reprogramming cells [1] = experiment: Mitotic shake-off of reprogramming cells; details: day-4 reprogramming cells
Procedure: • Mitotic shake-off: Reprogramming cells were prepared in T75 flasks. On day 4 of reprogramming, 1 h before mitotic shake-off, replace spent media with fresh reprogramming media. Shake the flasks at 200 rpm for 1 min and collect the media containing the shake-off mitotic cells. Add new warmed media and incubate for 10 min. Repeat these shake-off collection 2 more times. Pool the cells and centrifuge at 1,000×g for 5 min. Count the cells collected.

reprogramming BJ cells = experiment: RNA sequencing of cells on day 3 of reprogramming
Procedure: • RNA sequencing: mRNA sequencing was performed on the Illumina HiSeq2500 using the sequencing reagents and flow cells providing up to 300 Gb of sequence information per flow cell. Briefly, the quality of the total RNA was assessed using the Agilent 2100 Bioanalyzer followed by 2 rounds of polyA+ selection and conversion to cDNA. The stranded mRNA library generation kits were used per manufacturer's instructions (Agilent, Santa Clara, Calif.). Library construction consists of random fragmentation of the polyA mRNA, followed by cDNA production using random primers with inclusion of Actinomycin D in the first strand reaction. The ends of the cDNA are repaired, polyA-tailed and adaptors ligated for indexing (4 different barcodes per lane) during the sequencing runs. The cDNA libraries were quantitated using qPCR in a Roche LightCycler 480 with the Kapa Biosystems kit for library quantitation (Kapa Biosystems, Woburn, Mass.) prior to cluster generation. Clusters were generated to yield approximately 725 K to 825 K clusters/mm^2. Cluster density and quality were determined during the run after the first base addition parameters were assessed. Paired end 2×50 bp sequencing runs were run to align the cDNA sequences to the reference genome.
• Bioinformatics: 25-65 million of paired 51 bp reads were obtained for each sample. RNA sequencing reads were mapped to the human reference genome (GRCh37/hg19) using TopHat (v2.0.13) (Kim et al., (2013) Genome Biol. 14: R36). For more accurate mapping, the mean insert sizes and the standard deviations were calculated using Picard-tools (v1.126), and were passed to the mapper along with a Gene Transfer File (GTF version GRCh37.70) and the data were re-aligned. Read count tables were generated using HT-seq (v0.6.0) (Anders et al., (2015) Bioinformatics 31: 166-169). Deferential Expression (DE) analysis was performed using DESeq (v3.0) (Anders & Huber (2010) Genome Biol. 11: R106). Cufflinks v2.2.1 (Trapnell et al., (2010) Nat. Biotechnol. 28: 511-515) and Cummerbund v3.0 (Goff et al., (2014): Visualization and Exploration of Cufflinks High-throughput Sequencing Data., pp. 45) were also used for calculating expression levels in FPKM and data visualization. The BigWig files were generated using Bedtools (v2.17.0) (Quinlan & Hall (2010) Bioinformatics 26: 841-842) and bedGraphToBigWig tool (v4). For the analysis of micro-array data, Limma v3.0 (Smyth G. K., (2005) in Bioinformatics and Computational Biology Solutions Using R and Bioconductor: Gentleman et al., Eds. (Springer: New York): Ch. 23: pp. 397-420) was used Gene Ontology (GO) analysis was conducted using PANTHER (Mi et al., (2013) Nat. Protoc. 8: 1551-1566), Cytoscape-BiNGO (Saito et al., (2012) Nat. Methods 9: 1069-1076) and DAVID (Huang da et al., (2009) Nat. Protoc. 4: 44-57). Lists of mitotic genes were compiled based on the results from the three tools.

reprogramming cells [2] = experiment: Cell cycle analysis by flow cytometry of reprogramming cells; details: day 6 of reprogramming, compared to controls
Procedure: • Cell Cycle Analysis: Harvest cells by trypsin solution. Fix cell with 70% cold ethanol overnight at 4° C. The next day, wash cells with PBS. Treat cells with 0.2 mg/ml RNase A in PBS containing 0.1% Triton X-100 at 37° C. for 1 h. Add PI at a final concentration of 10 μg/ml. Keep the cells in dark and at 4° C. until analysis. Analyze on BD LSRFortessa. Percentage of cells at each cell cycle phases was determined with Watson (pragmatic) (Watson et al., (1987) Cytometry 8: 1-8) and Dean-Jett-Fox (Fox M. H. (1980) Cytometry 1: 71-77) models on FlowJow.

BRD3R: BRD3 with Reprogramming activity; 556 aa isoform of human BRD3 (AAH32124, SEQ ID NO: 47), encoded by cDNA L61
more colonies with PSC morphology than controls (BJ cells): at least 57 ×
mitotic cells collected compared to controls (reprogramming cells [1]): 2.43 ×
expression of CDKN2A, CDKN2B, CDKN1A, TP53 (p53-p21 pathway) (reprogramming BJ cells; BRD3R reprogramming cells): Downregulation was not seen
AFC of CEP78 (reprogramming BJ cells; day 3 of reprogramming): 0.94 ×
AFC of ERG (reprogramming BJ cells; day 3 of reprogramming): 0.84 ×
AFC of PSMB9 (reprogramming BJ cells; day 3 of reprogramming): 0.87 ×
number of upregulated genes in the mitotic category (reprogramming BJ cells; of 335 GO mapped genes, day 3): 128 genes
AFC of the 23 always upregulated mitotic genes (reprogramming BJ cells; p<0.05, day 3): at least 2.24 ×
total mitotic genes statistically upregulated in at least one comparison (reprogramming BJ cells; ≥1.5×, p<0.05, 4 IFC and 1 AFC comparisons, day 3): 185 genes
number of genes upregulated in BRD3R-expressing cells (reprogramming BJ cells; ≥1.7×, p<0.05, ADNRC≥50, day 3): 401 genes
number of cells in G1 (reprogramming cells [2]): statistically reduced
population of cells in G2/M phases (reprogramming cells [2]): statistically increased

— patent publication US20180163180A1, “METHOD OF ENHANCING SOMATIC CELL REPROGRAMMING WITH THE ACETYLLYSINE READER BRD3R” (THE UAB RESEARCH FOUNDATION, INC ., priority 2015, published 2018)
